Laboratory results taken from patent US8158631B2, “Heterocyclic antiviral compounds” (Roche Palo Alto LLC, priority 2009, dated 2012).

Legend:
[1] = molecular target: T1, HCV polymerase (NS5B570n-Con1) (Hepatitis C virus genotype 1b, UniProt Q9WMX2); experiment: HCV NS5B RNA polymerase activity (HCV Polymerase Assay); assay type: biochemical, HCV Con1 strain
T1 construct: contains a 21 amino acid deletion at the C-terminus relative to the full-length HCV polymerase; made in house; host or cells: E. coli strain BL21(DE) pLysS, plasmid pET17b
Method: The enzymatic activity of HCV polymerase (NS5B570n-Con1) was measured as the incorporation of radiolabeled nucleotide monophosphates into acid insoluble RNA products. Unincorporated radiolabeled substrate was removed by filtration and scintillant was added to the washed and dried filter plate containing radiolabeled RNA product. The amount of RNA product generated by NS5B570-Con1 at the end of the reaction was directly proportional to the amount of light emitted by the scintillant.
The N-terminal 6-histidine tagged HCV polymerase, derived from HCV Con1 strain, genotype 1b (NS5B570n-Con1) contains a 21 amino acid deletion at the C-terminus relative to the full-length HCV polymerase and was purified from E. coli strain BL21(DE) pLysS. The construct, containing the coding sequence of HCV NS5B Con1 (GenBank accession number AJ242654) was inserted into the plasmid construct pET17b, downstream of a T7 promoter expression cassette and transformed into E. coli. A single colony was grown overnight as a starter culture and later used inoculate 10 L of LB media supplemented with 100 μg/mL ampicillin at 37° C. Protein expression was induced by the addition of 0.25 mM isopropyl-β-D-thiogalactopyranoside (IPTG) when optical density at […] of the culture was between 0.6 and 0.8 and cells were harvested after 16 to 18 h at 30° C. NS5B570n-Con1 was purified to homogeneity using a three-step protocol including subsequent column chromatography on Ni-NTA, SP-Sepharose HP and Superdex 75 resins.
Each 50 μL enzymatic reaction contained 20 nM RNA template derived from the complementary sequence of the Internal Ribosome Entry Site (cIRES), 20 nM NS5B570n-Con1 enzyme, 0.5 μCi of tritiated UTP (Perkin Elmer catalog no. TRK-412; specific activity: 30 to 60 Ci/mmol; stock solution concentration from 7.5×10^−5 M to 20.6×10^−6 M), 1 μM each ATP, CTP, and GTP, 40 mM Tris-HCl pH 8.0, 40 mM NaCl, 4 mM DTT (dithiothreitol), 4 mM MgCl2, and 5 μL of compound serial diluted in DMSO. Reaction mixtures were assembled in 96-well filter plates (cat #MADVNOB, Millipore Co.) and incubated for 2 h at 30° C. Reactions were stopped by addition of 10% final (v/v) trichloroacetic acid and incubated for 40 min at 4° C. Reactions were filtered, washed with 8 reaction volumes of 10% (v/v) trichloroacetic acetic acid, 4 reaction volumes of 70% (v/v) ethanol, air dried, and 25 μL of scintillant (Microscint 20, Perkin-Elmer) was added to each reaction well.
The amount of light emitted from the scintillant was converted to counts per minute (CPM) on a Topcount® plate reader (Perkin-Elmer, Energy Range: Low, Efficiency Mode Normal, Count Time: 1 min, Background Subtract: none, Cross talk reduction: Off).
Data was analyzed in Excel® (Microsoft®) and ActivityBase® (Idbs®). The reaction in the absence of enzyme was used to determine the background signal, which was subtracted from the enzymatic reactions. Positive control reactions were performed in the absence of compound, from which the background corrected activity was set as 100% polymerase activity. All data was expressed as a percentage of the positive control.
The compound concentration at which the enzyme-catalyzed rate of RNA synthesis was reduced by 50% (IC50) was calculated by fitting equation (i) to the data where“Y”
[formula] corresponds to the relative enzyme activity (in %), “% Min” is the residual relative activity at saturating compound concentration, “% Max” is the relative maximum enzymatic activity, “X” corresponds to the compound concentration, and “S” is the Hill coefficient (or slope).

[2] = test system: HCV replicon cells (2209-23), genotype 1b replicon in Huh7 cells; experiment: HCV replicon assay (Renilla luciferase reporter); assay type: cell-based, HCV genotype 1b; human hepatoma Huh7 cells; settings: Hepatitis C virus, Huh-7, 72 h, 2209-23 cells, three days incubation
[3] = in vitro; settings: human
[4] = test system: HCV; settings: cited from earlier work

Compound | IC50 [1] | melting point | other results
COc1c(/C=C/c2ccc(NS(C)(=O)=O)cc2)cc(N2CCCNC2=O)cc1C(C)(C)C [Compound I-2, N-(4-{(E)-2-[3-tert-Butyl-2-methoxy-5-(2-oxo-tetrahydro-pyrimidin-1-yl)-phenyl]-vinyl}-phenyl)-methanesulfonamide] | 10 nM | – | –
COc1c(CCc2ccc(NS(C)(=O)=O)cc2)cc(N2CCCNC2=O)cc1C(C)(C)C [Compound I-3, N-(4-{2-[3-tert-Butyl-2-methoxy-5-(2-oxo-tetrahydro-pyrimidin-1-yl)-phenyl]-ethyl}-phenyl)-methanesulfonamide] | 13 nM | 244 to 246 °C | –
COc1c(CCc2ccc(NS(C)(=O)=O)cc2)cc(N2CCNC2=O)cc1C(C)(C)C [Compound I-4] | 32 nM | 229 to 231 °C | –
COc1c(/C=C/c2ccc(NS(C)(=O)=O)cc2)cc(N2CCC(C)(C)NC2=O)cc1C(C)(C)C [Compound I-5, N-(4-{(E)-2-[3-tert-Butyl-5-(4,4-dimethyl-2-oxo-tetrahydro-pyrimidin-1-yl)-2-methoxy-phenyl]-vinyl}-phenyl)-methanesulfonamide] | 1 nM | – | IC50 [2]: 19 nM; CC50 [3]: 13800 nM
COc1c(CCc2ccc(NS(C)(=O)=O)cc2)cc(N2C(=O)CCNC2=O)cc1C(C)(C)C [Compound I-6, N-(4-{2-[3-tert-Butyl-5-(2,6-dioxo-tetrahydro-pyrimidin-1-yl)-2-methoxy-phenyl]-ethyl}-phenyl)-methanesulfonamide] | 63 nM | – | –
COc1c(CCc2ccc(NS(C)(=O)=O)cc2)cc(N2C(=O)CNC2=O)cc1C(C)(C)C [Compound I-7, N-(4-{2-[3-tert-Butyl-5-(2,5-dioxo-imidazolidin-1-yl)-2-methoxy-phenyl]-ethyl}-phenyl)-methanesulfonamide] | 15 nM | 230 to 231 °C | –
COc1c(/C=C/c2ccc(NS(C)(=O)=O)cc2)cc(N2CCCCC2=O)cc1C(C)(C)C [Compound I-8, N-(4-{(E)-2-[3-tert-Butyl-2-methoxy-5-(2-oxo-piperidin-1-yl)-phenyl]-vinyl}-phenyl)-methanesulfonamide] | 16 nM | 247 to 249 °C | –
COc1c(/C=C/c2ccc(NS(C)(=O)=O)cc2)cc(-n2ccccc2=O)cc1C(C)(C)C [Compound I-9, N-(4-{(E)-2-[3-tert-Butyl-2-methoxy-5-(2-oxo-2H-pyridin-1-yl)-phenyl]-vinyl}-phenyl)-methanesulfonamide] | 1 nM | 254 to 256 °C | –
COc1c(/C=C/c2ccc(NS(C)(=O)=O)cc2)cc(-n2cc(F)ccc2=O)cc1C(C)(C)C [Compound I-10] | 5 nM | 248 to 250 °C | –
COc1c(/C=C/c2ccc(NS(C)(=O)=O)cc2)cc(-n2ncccc2=O)cc1C(C)(C)C [Compound I-11] | 0.38 nM | 260 to 262 °C | –
COc1c(/C=C/c2ccc(NS(C)(=O)=O)cc2)cc(-n2cnccc2=O)cc1C(C)(C)C [Compound I-12] | 1 nM | 202 to 204 °C | –
COC(=O)c1cc(NS(C)(=O)=O)ccc1/C=C/c1cc(-n2ccncc2=O)cc(C(C)(C)C)c1OC [Compound I-15, 2-{(E)-2-[3-tert-Butyl-2-methoxy-5-(2-oxo-2H-pyrazin-1-yl)-phenyl]-vinyl}-5-methanesulfonylamino-benzoic acid methyl ester] | 1 nM | – | –
COc1c(/C=C/c2ccc(NS(C)(=O)=O)cc2C(=O)O)cc(-n2ccncc2=O)cc1C(C)(C)C [Compound I-16] | 0.39 nM | 176 to 179 °C | –
COc1c(/C=C/c2ccc(NS(C)(=O)=O)cc2CO)cc(-n2ccncc2=O)cc1C(C)(C)C [Compound I-17, N-(4-{(E)-2-[3-tert-Butyl-2-methoxy-5-(2-oxo-2H-pyrazin-1-yl)-phenyl]-vinyl}-3-hydroxymethyl-phenyl)-methanesulfonamide] | 0.49 nM | 238 to 240 °C | –
COc1c(/C=C/c2ccccc2C(=O)O)cc(-n2ccccc2=O)cc1C(C)(C)C [Compound I-18] | 5 nM | – | –
COc1c(/C=C/c2ccccc2C(=O)O)cc(-n2ccncc2=O)cc1C(C)(C)C [Compound I-19, 2-{(E)-2-[3-tert-Butyl-2-methoxy-5-(2-oxo-2H-pyrazin-1-yl)-phenyl]-vinyl}-benzoic acid] | 2 nM | – | –
COc1c(CCc2ccc(NS(C)(=O)=O)cc2)cc(N2CCCS2(=O)=O)cc1C(C)(C)C [Compound I-20] | 83 nM | 83 to 86 °C | –
COc1c(/C=C/c2ccc(NS(C)(=O)=O)cc2C(=O)O)cc(N2CCCNC2=O)cc1C(C)(C)C [Compound I-21] | 0.23 nM | 275 to 278 °C | –
COc1c(-c2cc3ccc(NS(C)(=O)=O)cc3c(=O)o2)cc(-n2ccncc2=O)cc1C(C)(C)C [Compound I-22] | 3 nM | 272 to 275 °C | –
COc1c(/C=C/c2ccc(NS(C)(=O)=O)cc2)cc(-n2ccc(=O)[nH]c2=O)c2c1C(C)(C)CO2 [Compound I-23, N-(4-{(E)-2-[7-(2,4-Dioxo-3,4-dihydro-2H-pyrimidin-1-yl)-4-methoxy-3,3-dimethyl-2,3-dihydro-benzofuran-5-yl]-vinyl}-phenyl)-methanesulfonamide] | 0.37 nM | 285 to 288 °C | –
COc1c(-c2nc3cc(NS(C)(=O)=O)ccc3o2)cc(N2CCCNC2=O)cc1C(C)(C)C [Compound I-24, N-{2-[3-tert-Butyl-2-methoxy-5-(2-oxo-tetrahydro-pyrimidin-1-yl)-phenyl]-benzooxazol-5-yl}-methanesulfonamide] | 63.3 nM | – | –
COc1c(CCc2ccc(NS(C)(=O)=O)cc2)cc(N2C(=O)NC(C)C2=O)cc1C(C)(C)C (centres unmarked) [Compound I-25] | 19 nM | 211 to 212 °C | –
COc1c(/C=C/c2ccc(NS(C)(=O)=O)cc2)cc(N2CCCNS2(=O)=O)cc1C(C)(C)C [Compound I-26, N-(4-{(E)-2-[3-tert-Butyl-5-(1,1-dioxo-1λ^6-[1,2,6]thiadiazinan-2-yl)-2-methoxy-phenyl]-vinyl}-phenyl)-methanesulfonamide] | 5.1 nM | 255 to 257 °C | –
COc1c(/C=C/c2ccc(NS(C)(=O)=O)cc2)cc(-n2c(C)n[nH]c2=O)cc1C(C)(C)C [Compound I-27, N-(4-{(E)-2-[3-tert-Butyl-2-methoxy-5-(3-methyl-5-oxo-1,5-dihydro-[1,2,4]triazol-4-yl)-phenyl]-vinyl}-phenyl)-methanesulfonamide] | 0.3 nM | 289 to 291 °C | –
CC(C)(C)c1cc(/C=C/c2ccc(NS(C)(=O)=O)cc2)cc(N2CCCNC2=O)c1 [I-I, N-(4-{(E)-2-[3-tert-Butyl-5-(2-oxo-tetrahydro-pyrimidin-1-yl)-phenyl]-vinyl}-phenyl)-methanesulfonamide] | 15 nM | 235 to 237 °C | –
NC(=O)c1ncn([C@@H]2O[C@H](CO)[C@@H](O)[C@H]2O)n1 [ribavirin, 1-((2R,3R,4S,5R)-3,4-Dihydroxy-5-hydroxymethyl-tetrahydro-furan-2-yl)-1H-[1,2,4]triazole-3-carboxylic acid amide] | – | – | patients with serum amino transferase levels reduced to normal ([4]; monotherapy): 40 % of patients; effect on serum levels of HCV-RNA ([4]; sole treatment / monotherapy): does not lower serum levels of HCV-RNA
